How the values were obtained:
Format in all cases: biochemical
Human IDO1 His-Tag = molecular target: T1, Human IDO1 His-Tag (Homo sapiens, UniProt P14902); assay: IDO1 Inhibitor Screening Assay (BPS Bioscience kit, absorption at 321 nm); settings: room temperature, 3 hours; N.D. = Not Detected
T1 construct: purchased BPS Bioscience
Method: IDO1 (indoleamine 2,3-dioxygenase-1) catalyzes the oxidative cleavage of the pyrrole ring of tryptophan to yield N′-formylkynurenine. The amount of N′-formylkynurenine product is able to be detected by the absorption at the wavelength of 321 nm. IDO1 inhibitor Screening Assay kit (BPS Bioscience) was used to test the compound. The assay was performed as described in the assay protocol.
IDO1 reaction solution (90 μl) was aliquoted into each well of a 96-well plate. 5 μl of the compound solution in 10% DMSO was added to each well. 5 μl 10% DMSO was added to the positive control and blank wells. Human IDO1 His-Tag was diluted to 40 ng/μl in 1×IDO1 Assay buffer. The reaction was initiated by adding 5 μl of diluted IDO1. In the blank well, only 1×IDO1 assay buffer was added instead. After incubating at room temperature for 3 hours, the absorption was measured at the wavelength of 321 nm using a microplate reader.
(§1) The relative activity, I, was the ratio of former to later, i.e. X/Y, expressed in percentile. The IC50 was the concentration of the compounds when X/Y equals 50 and calculated based on the dose-response curve.

Human IDO2 His-Tag = molecular target: T2, Human IDO2 His-Tag (Homo sapiens, UniProt Q6ZQW0); assay: IDO2 Inhibitor Screening Assay (BPS Bioscience kit, absorption at 321 nm); settings: room temperature, 3 hours
T2 construct: purchased BPS Bioscience
T2 sequence (Q6ZQW0 1-407): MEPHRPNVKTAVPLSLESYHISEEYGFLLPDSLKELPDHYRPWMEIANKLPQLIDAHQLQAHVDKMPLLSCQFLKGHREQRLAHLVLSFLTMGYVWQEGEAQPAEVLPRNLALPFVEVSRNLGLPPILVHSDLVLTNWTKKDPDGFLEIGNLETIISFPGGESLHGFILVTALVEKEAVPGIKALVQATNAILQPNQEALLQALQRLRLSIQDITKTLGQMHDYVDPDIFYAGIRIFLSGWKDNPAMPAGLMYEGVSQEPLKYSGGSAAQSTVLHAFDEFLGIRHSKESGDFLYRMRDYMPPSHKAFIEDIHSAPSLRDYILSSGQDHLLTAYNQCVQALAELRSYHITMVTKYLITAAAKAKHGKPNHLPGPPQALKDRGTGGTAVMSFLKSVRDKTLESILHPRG
Method: To evaluate the selectivity of IDO inhibition for Compounds Nos. D42 and D46, an assay to measure activity against IDO2 was performed. The IDO2 Inhibitor Screening Assay kit (BPS Bioscience) was used for IDO2 test. The protocol is similar to IDO1 assay. IDO2 reaction solution (90 μl) was aliquoted into each well of a 96-well plate. 5 μl of compound solution in 10% DMSO was added to each well. 5 μl 10% DMSO was added to the positive control and blank wells. Human IDO2 His-Tag was diluted in 1×IDO2 Assay buffer at 400 ng/μl. The reaction was initiated by adding 5 μl diluted IDO2. 1×IDO2 assay buffer to the blank well. After incubating at room temperature for 3 hours, the absorption was measured at the wavelength of 321 nm. The IC50 was calculated as described for IDO2.
as §1, with “The test compound inhibition was measured as X-fold. The control solution (DMSO) was measured as Y-fold. The relative” for “The relative”

Human TDO His-Tag = molecular target: T3, Human TDO His-Tag (Homo sapiens, UniProt P48775); assay: TDO Inhibition Screening Assay (BPS Bioscience kit, absorption at 321 nm); settings: room temperature, 1.5 hours
T3 construct: purchased BPS Bioscience
Method: The TDO inhibitor Screening Assay kit (BPS Bioscience) was used to test for TDO inhibition by Compound Nos. D42 and D46. The protocol is similar to IDO1 assay. TDO reaction solution (90 μl) was aliquoted into each well of a 96-well plate. 5 μl of compound solution in 10% DMSO was added to each well. 5 μl 10% DMSO was added to the positive control and blank wells. Human TDO His-Tag was diluted in 1×TDO Assay buffer at 50 ng/μl. The reaction was initiated by adding 5 μl diluted TDO. 1×TDO assay buffer was added to the blank well. After incubating at room temperature for 1.5 hours, the absorption was measured at the wavelength of 321 nm. The IC50 was calculated as described for TDO inhibition. The relative activity and IC50 was calculated as described above in Examples 3 and 4.

T1 sequence (P14902 whole entry): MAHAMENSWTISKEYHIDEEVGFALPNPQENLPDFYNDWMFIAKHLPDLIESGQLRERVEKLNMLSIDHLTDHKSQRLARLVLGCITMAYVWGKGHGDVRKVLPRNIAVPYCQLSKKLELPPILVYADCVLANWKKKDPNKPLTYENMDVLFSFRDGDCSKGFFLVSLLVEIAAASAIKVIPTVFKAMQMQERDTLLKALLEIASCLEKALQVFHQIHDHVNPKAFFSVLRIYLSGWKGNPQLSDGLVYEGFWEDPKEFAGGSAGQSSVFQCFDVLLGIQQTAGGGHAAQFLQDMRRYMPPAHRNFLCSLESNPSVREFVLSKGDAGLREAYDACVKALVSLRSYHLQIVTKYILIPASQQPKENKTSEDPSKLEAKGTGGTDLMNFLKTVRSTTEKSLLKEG
T3 sequence (P48775 whole entry): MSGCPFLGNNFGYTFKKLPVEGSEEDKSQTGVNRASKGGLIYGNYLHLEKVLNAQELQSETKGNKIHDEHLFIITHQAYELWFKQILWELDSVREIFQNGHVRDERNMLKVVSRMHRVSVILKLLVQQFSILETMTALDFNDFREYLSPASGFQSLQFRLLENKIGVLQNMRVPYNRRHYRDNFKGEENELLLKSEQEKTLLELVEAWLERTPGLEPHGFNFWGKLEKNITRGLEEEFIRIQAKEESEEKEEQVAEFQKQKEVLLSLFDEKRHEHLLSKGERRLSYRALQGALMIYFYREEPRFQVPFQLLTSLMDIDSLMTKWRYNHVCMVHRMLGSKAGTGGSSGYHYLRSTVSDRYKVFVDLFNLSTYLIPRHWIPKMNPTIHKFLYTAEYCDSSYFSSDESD

| IC50 (Human IDO1 His-Tag) [nM] | IDO2 inhibition (Human IDO2 His-Tag) | IC50 (Human TDO His-Tag) [µM] | Structure (SMILES) |
| --- | --- | --- | --- |
| 61 | No IDO2 inhibition was detected | 0.064 | N#Cc1ccc(NC(=O)NCC2c3ccccc3-c3cncn32)cc1 (stereo not drawn) [D42, 1-((5H-imidazo[5,1-a]isoindol-5-yl)methyl)-3-(4-cyanophenyl)urea] |
| 325 | No IDO2 inhibition was detected | 0.064 | N#Cc1ccc(NC(=O)NCCC2c3ccccc3-c3cncn32)cc1 (stereo not drawn) [D46, 1-(2-(5H-imidazo[5,1-a]isoindol-5-yl)ethyl)-3-(4-cyanophenyl)urea] |

Source: patent US20180362531A1, “NOVEL KYNUREININE PATHWAY INHIBITORS” (STANDARD LLC, priority 2017, published 2018)
